Consider two compounds from patent US10413505B1, “Pharmaceutical compositions and methods of using the same” (priority 2017, dated 2019).

Data set [1] is described as follows: Benzoylecgonine solubility in water. The class given is physicochemical. The settings on record: deionized water vehicle. On the procedure:
Deionized water was chosen as the vehicle for this study to avoid any vehicle-related local toxicity. Benzoylecgonine is soluble in water up to approximately 40 mg/mL.

In data set [2] the test system is Sprague Dawley rats. The experiment in a line: Example 9 benzoylecgonine intranasal toxicity, Repeat-Dose Phase. The data set is classed as in vivo, rat. On the procedure:
Benzoylecgonine in the vehicle was administered by intranasal instillation once daily for 14 days to a group (Group 2) of Sprague Dawley rats at a dosage level of 8.8 mg/kg/day. […] The dose volume was 0.22 mL/kg, divided between the 2 nares, for both groups. Groups 1 and 2 each consisted of 15 animals/sex. Following 14 days of dose administration, 10 animals/sex/group were euthanized; the remaining 5 animals/sex/group were euthanized following a 14-day nondosing (recovery) period. Criteria for evaluation included daily mortality observations, daily clinical observations, detailed physical observations, body weights, food consumption, clinical pathology (hematology, coagulation, serum chemistry, and urinalysis), organ weights, gross pathology, and microscopic examination of select tissues.
(§1) Organization of Test Groups, Dosage Levels, and Treatment Regimen—The vehicle and test article formulations were administered by intranasal instillation into each naris via a syringe equipped with stainless steel-shafted, stainless steel ball-tipped dosing cannula once (Single-Dose Phase) or once daily for 14 consecutive days (Repeat-Dose Phase), through the day prior to the primary necropsy. The same syringe and dosing cannula was used to administer the dose across both nares for a given animal on a given dosing day. The total dose volume administered per dose was split approximately equally across each naris, such that approximately half of the total dose volume was administered into one naris, and the remaining was administered into the other naris. Treatment administration across each naris for an individual animal occurred at approximately the same time. The dose volume for all groups was 0.22 mL/kg. Individual doses were based on the most recently recorded body weights. Adjusted doses became effective the day of collection of the weekly body weights. The first day of dosing was Study Day 0; the first week of dosing was Study Week 0.
(§2) All animals were observed twice daily, once in the morning and once in the afternoon, for mortality and moribundity. Animals found dead were examined macroscopically as soon as possible to ensure that tissues were not lost due to autolysis.
(§3) Clinical examinations were performed at the time of dose administration and 1 to 2 hours following dose administration. During the recovery period, the animals were observed once daily. The absence or presence of findings was recorded for individual animals at the scheduled intervals. For the Single-Dose Phase, detailed physical examinations were conducted on all animals within 4 days of receipt, on the day of randomization, and on Study Days 0, 1 (for animals scheduled for necropsy), 7, and 14. For the Repeat-Dose Phase, detailed physical examinations were conducted on all animals within 4 days of receipt, on the day of randomization, weekly (t 2 days) during the study period, and on the day of the scheduled necropsies (see Appendix 1—Study Protocol and Deviations). Daily observations during the recovery period were not necessary on days when detailed physical examinations were conducted.
(§4) Individual body weights were recorded within 4 days of receipt, on the day of randomization, Study Day 0 (prior to dosing), weekly (±2 days) during the study period, and on the day prior to the scheduled necropsies (nonfasted). Mean body weights and mean body weight changes were calculated for the corresponding intervals. Final body weights (fasted) were recorded on the day of the scheduled necropsies.
(§5) Cage food weights were recorded once weekly (±2 days) beginning following randomization and throughout the study period. Food consumption was calculated as g/animal/day for the corresponding body weight intervals.
(§6) Blood and urine samples for clinical pathology evaluations (hematology, coagulation, serum chemistry, and urinalysis) were collected from all animals assigned to the scheduled necropsies. […]

Data set [3] deals with Sprague Dawley rats. The data set can be described thus: Example 9 benzoylecgonine intranasal toxicity, Single-Dose Phase. The data set is classed as in vivo, rat. On the procedure:
Benzoylecgonine in the vehicle (deionized water) was administered by intranasal instillation once to a group (Group 2) of Sprague Dawley rats at a dose level of 8.8 mg/kg. […] The dose volume was 0.22 mL/kg, divided between the 2 nares, for both groups. Groups 1 and 2 each consisted of 20 animals/sex. Following dose administration, 9 to 10 animals/sex/group were euthanized on Study Day 1; the remaining 10 animals/sex/group were euthanized following a 14-day nondosing (recovery) period. Criteria for evaluation included daily mortality observations, daily clinical observations, detailed physical observations, body weights, food consumption, clinical pathology (hematology, coagulation, serum chemistry, and urinalysis), organ weights, gross pathology, and microscopic examination of select tissues.
as §1, §2, §3, §4, §5, §6

A short description of data set [4]: Literature disposition of cocaine (intravenous clearance, urinary elimination). The data set is classed as in vivo, human. The settings on record: humans. The text has this: In humans, cocaine is eliminated predominantly by metabolism, with little excreted unchanged in the urine. Only 1% to 10% of a dose of cocaine is eliminated unmetabolized in urine.
Setting [5] is: 8.8 mg/kg/day for 14 days, intranasal instillation.
The mark [6] stands for this setting: 8.8 mg/kg once, intranasal instillation.

For `CN1[C@H]2CC[C@@H]1[C@@H](C(=O)O)[C@@H](OC(=O)c1ccccc1)C2` [BE, benzoylecgonine], the solubility in water result in data set [1] was “approximately 40 mg/mL”. Further, in data set [2] (8.8 mg/kg once or once daily for 14 days, intranasal instillation), the tolerability entry is reported as “well tolerated”. Besides, in data set [2] (setting [5]), the clinical observations entry is given as “no test article-related clinical observations”; the food consumption result is “unaffected”; the “hematology and coagulation parameters” value is given as “unaffected”; the “macroscopic examination at necropsy” value is reported as “No test article-related macroscopic findings”. Besides, in data set [2] (setting [5]), the organ weights entry was “No test article-related organ weight findings”, the serum chemistry parameters result is recorded as “unaffected”, the survival entry is given as “All animals survived” and the urinalysis parameters result is given as “unaffected”. The “microscopic examination (nasal cavity with turbinates)” value in data set [2] (8.8 mg/kg/day for 14 days, intranasal instillation, also after 14-day recovery) was “No test article-related microscopic findings”. The body weights result in data set [2] (8.8 mg/kg/day for 14 days, intranasal instillation, dosing period) is given as “unaffected”. Besides, the “pH of the dosing formulation” value in data set [2] (Repeat-Dose Phase, 40 mg/mL in deionized water, pH meter) worked out at 6.32. Moreover, the “no-observed-effect level (NOEL)” value in data set [2] (intranasal instillation once or once daily for 14 days) was 8.8 mg/kg/day. For the same compound, in data set [3] (setting [6]), the body weights result is “unaffected”; the clinical observations result is given as “no test article-related clinical observations”; the food consumption entry was “unaffected”; the “hematology and coagulation parameters” value is “unaffected”. In data set [3] (setting [6]), the “macroscopic examination at necropsy” value is listed as “No test article-related macroscopic findings”, the organ weights result is recorded as “No test article-related organ weight findings”, the serum chemistry parameters entry is “unaffected” and the survival entry is on record as “no test article-related effects on survival”. Moreover, the urinalysis parameters entry in data set [3] (setting [6]) is “unaffected”. The “microscopic examination (nasal cavity with turbinates)” value in data set [3] (8.8 mg/kg once, intranasal instillation, also after 14-day recovery) was “No test article-related microscopic findings”. Besides, in data set [3] (Single-Dose Phase, 40 mg/mL in deionized water, pH meter), the “pH of the dosing formulation” value amounted to 6.32.

As to `COC(=O)[C@H]1[C@@H](OC(=O)c2ccccc2)C[C@@H]2CC[C@H]1N2C` [Cocaine, cocaine, reference compound], in data set [4], the “CLr as percent of CL” value was “less than 2%” and the “CLr as percent of human glomerular filtration rate (125 mL/min)” value is “less than 40%”.
